Entries after “also recorded” stand apart in the source; their conditions may differ.
How the values were obtained:
male C57BI/6J mice [1] = test: sucrose preference test (SPT) after chronic multimodal stress (CMMS); assay type: in vivo; conditions: stress-susceptible CMMS mice; ketanserin 2 mg/kg alone (ketanserin-vehicle); vs values after CMMS
male C57BI/6J mice [2] = test: female urine sniff test (FUST) after chronic multimodal stress; assay type: in vivo; conditions: stress-susceptible CMMS mice; ketanserin 2 mg/kg alone; vs values after CMMS
male C57BI/6J mice [3] = test: locomotion (video, Any-maze) after injection; assay type: in vivo; conditions: ketanserin 2 mg/kg pretreatment, recorded 90 minutes after second injection, with or without psilocybin
5-HT2Rs = conditions: cited from earlier work
5-HTRs = conditions: read-out: affinities at almost all 5-HTRs; cited from earlier work
5-HT1BRs = 5-HT1BRs (Homo sapiens, UniProt P28222); conditions: cited from earlier work
Chain of 5-HT1BRs (P28222 whole entry): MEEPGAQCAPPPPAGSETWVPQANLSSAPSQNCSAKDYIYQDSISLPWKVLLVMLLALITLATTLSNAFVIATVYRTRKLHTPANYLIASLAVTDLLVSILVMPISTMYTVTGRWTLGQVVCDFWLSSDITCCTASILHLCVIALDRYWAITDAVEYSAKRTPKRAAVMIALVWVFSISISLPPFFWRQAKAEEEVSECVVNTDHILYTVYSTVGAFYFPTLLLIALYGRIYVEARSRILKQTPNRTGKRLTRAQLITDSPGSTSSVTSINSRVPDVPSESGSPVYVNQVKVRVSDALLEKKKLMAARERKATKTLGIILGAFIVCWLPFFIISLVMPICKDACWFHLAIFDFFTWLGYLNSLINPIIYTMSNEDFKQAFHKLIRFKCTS

SMILES: O=C(c1ccc(F)cc1)C1CCN(CCn2c(=O)[nH]c3ccccc3c2=O)CC1 [ketanserin, Ketanserin]
- sucrose preference (SP) (male C57BI/6J mice [1]): no significant effect on either behavior
- preference for female urine (male C57BI/6J mice [2]): nor ketanserin alone (p=0.072; n=4) had a significant effect; also recorded: no significant effect on either behavior
- time mobile / mobility (male C57BI/6J mice [3]): significant effect of ketanserin
- total distance travelled (male C57BI/6J mice [3]): main effect of ketanserin
- time mobile / mobility (male C57BI/6J mice [3]; listed as Ketanserin): significant increase in mobility
- acute psilocybin-induced changes in processing of negative emotional stimuli (5-HT2Rs; healthy subjects): prevented
- psilocybin-induced self-reported perceptual distortions (5-HT2Rs; humans, ketanserin block of 5-HT2Rs): significantly attenuates self-reported perceptual distortions; also recorded: attenuates psilocybin-induced perceptual alterations

SMILES: CN(C)CCc1c[nH]c2cccc(O)c12 [Psilocin]
- Ki (5-HTRs): 3 to 500 nM
- affinity for 5-HT1BRs (5-HT1BRs): high affinity
